# Experimental data as given in patent publication US9688625B2, “Amorphous form of a thiocolchicine derivative” (priority 2014, dated 2017).
# Assays:
# Type in all cases: physicochemical
# [1] = Chemical stability on storage, analyses by HPLC; conditions: for variation in the chemical composition: after one month at 40±2° C./75±5% relative humidity; for time for which chemically stable (none impurity departed from its initial value): HPLC
# Protocol: The analyses were performed by HPLC.
# [2] = Solubility (comparison of solid forms); conditions: compared with other crystalline forms
# [3] = Physical stability on storage (features of FIG. 1-4 maintained); conditions: 40±2° C./75±5 relative humidity
# Protocol: The amorphous form of compound (I) has also been found physically stable at 25±2° C./60±5% relative humidity for at least three years and at 40±2° C./75±5 relative humidity for at least 6 months, as it maintained the characteristics features reported in FIG. 1-4.
Compound,variation in the chemical composition [1],time for which chemically stable (none impurity departed from its initial value) ([1]; 25±2° C./60±5% relative humidity),time for which chemically stable (none impurity departed from its initial value) ([1]; 40±2° C./75±5% relative humidity),solubility in water [2],time for which physically stable (maintained features of FIG. 1-4) [3]
"COc1cc2c(c(OC)c1OC)-c1ccc(SC)c(=O)cc1[C@@H](NC(=O)CCNC(=O)N[C@H]1CCc3cc(OC)c(OC)c(OC)c3-c3ccc(SC)c(=O)cc31)CC2 (single isomer, unassigned) [crystalline IDN 5404 obtained in Example 2] [reference compound]",7%,,,,
"COc1cc2c(c(OC)c1OC)-c1ccc(SC)c(=O)cc1[C@@H](NC(=O)CCNC(=O)N[C@H]1CCc3cc(OC)c(OC)c(OC)c3-c3ccc(SC)c(=O)cc31)CC2 [amorphous form of compound (I), IDN 5404]",,at least three,at least 6 moths,more soluble in water than other crystalline forms,at least 6 months
"COc1cc2c(c(OC)c1OC)-c1ccc(SC)c(=O)cc1[C@@H](NC(=O)CCNC(=O)N[C@H]1CCc3cc(OC)c(OC)c(OC)c3-c3ccc(SC)c(=O)cc31)CC2 (single isomer, unassigned) [crystalline IDN 5404 obtained in Example 3] [reference compound]",4.1%,,,,
